No end group written: not given here.
How the values were obtained:
DSS-induced colitis mice = DSS-induced colitis mice model (Disease Activity Index, colon length); format: in vivo, Balb/c mice
Text: FIG. 2: OXA ameliorates the DAI (weight and colitis score) of DSS-induced colitis mice. Mice were orally treated with 5% DSS for 7 days in the presence or in the absence of daily intraperitoneal injection of OxA (0.22 μmoles/kg). Left, determination of gain or loss of weight in the absence of DSS treatment (Control,▴), in the presence of DSS treatment (DSS,▪) and in the presence of DSS associated to OxA treatment (DSS+OxA,●). Right, evaluation of Disease Activity Index (DAI) scored by measuring weight, length of colon, diarrhea and blood presence in the stool in DSS untreated control mice (Control,A), in DSS treated mice (DSS,▪) and in DSS treated mice associated to OxA treatment (DSS+OxA,●).
FIG. 14: Effect of daily ip inoculation of OxA, Suvorexant and Almorexant on the length of colon from DSS—(dextran sulfate sodium) treated mice mimicking the acute ulcerative colitis disease. A. Mice were treated with 5% (w/v) DSS in drinking water and daily injected with 20 μg of OxA (OXA IP), 20 μg of Suvorexant (Suvo) or 20 μg of Almorexant (Almo). Control (wt) or treated DSS mice (DSS) were daily injected with 100 μl PBS. After one week of treatment, mice were sacrificed and the length of colon which represented a good marker of inflammation state, was measured. […] B. quantification of colon length from 5 different DSS-treated mice injected with OxA (DSS+OXA IP), Almorexant (DSS+Almo), Suvorexant (DSS+Suvo) or not injected (WT and DSS). NS, no significant; *, p<0.05; ** p<0.001
Based on these observations, we have investigated the effect of Orexin A (OxA) on acute inflammation in mice treated with Dextran Sulfate Sodium (DSS). OxA was preferentially chosen in these experiments since the presence of two disulphide bridges confers it more stability. DSS induces acute colitis characterized by weight loss, bloody diarrhea, intestinal ulcerations and infiltrations with granulocytes.
DSS-induced colitis mice models: Balb/c mice were orally treated by 5% (w/v) of Dextran Sulfate Sodium (DSS) for 7 days. Orexin treatment was carried out in DSS treated mice by daily intraperitoneal injection of OxA (0.22 μmoles/kg) for 7 days. Weight and colitis symptoms (diarrhea, blood in the stool . . . ) for each mouse was daily measured. After 7 days of treatment, animals were sacrificed and colons were resected to further analyses (size, histological aspect, cytokine assays).
The inventors have thus investigated the effect of daily intraperitoneal inoculation of OxA, Suvorexant and Almorexant in the experimental context of EXAMPLE 1 (colitis). In particular they investigated the effects of the drugs on the length of colon from DSS-(dextran sulfate sodium) treated mice mimicking the acute ulcerative colitis disease. […]

[1] = test system: colon adenocarcinoma HT-29 cells; assay: Apoptosis assay (annexin V-PE binding, Guava nexin kit) in HT-29 cells; format: cell-based; conditions: 48 h; orexin-A 1 μM, SB408124 various concentrations
Method: FIG. 13: Effect of orexin-A and SB408124 antagonist on apoptosis in OX1R expressing colon adenocarcinoma cells, HT-29. HT-29 cells were challenged with 1 μM orexin-A or various concentration of SB408124 for 48 h. Apoptosis was measured by determination of annexin V-PE binding, and results are expressed as the percentage of apoptotic cells. Results are means±SE of three experiments. ***P<0.001.
(§1) Cells growth determination and apoptosis assay: HEK-OX1R cells or colon adenocarcinoma HT-29 cells were seeded, grown and maintained at 37° C. in a humidified 5% CO2/air incubator. After 24 hr culture, cells were treated with or without Orexin-A peptide or SB408124 antagonist, previously dissolved in DMSO, to be tested at the concentration indicated in the figure legends. After 48 hr of treatment, adherent cells were harvested by Trip1E (Life Technologies, Saint Aubin, France) and manually counted. Apoptosis was determined using the Guava PCA system and the Guava nexin kit.

OX1R = molecular target: T1, OX1R (Homo sapiens, UniProt O43613, A280G); assay: Ca2+ mobilization assay in HEK-OX1R cells (FluoForte); format: cell-based; conditions: 1 μM
T1 construct: HEK cells expressing recombinant native OX1R (HEK-OX1R); expressed in transfected cells; host or cells: HEK cells (HEK-OX1R)
T1 sequence (O43613 1-425 A280G): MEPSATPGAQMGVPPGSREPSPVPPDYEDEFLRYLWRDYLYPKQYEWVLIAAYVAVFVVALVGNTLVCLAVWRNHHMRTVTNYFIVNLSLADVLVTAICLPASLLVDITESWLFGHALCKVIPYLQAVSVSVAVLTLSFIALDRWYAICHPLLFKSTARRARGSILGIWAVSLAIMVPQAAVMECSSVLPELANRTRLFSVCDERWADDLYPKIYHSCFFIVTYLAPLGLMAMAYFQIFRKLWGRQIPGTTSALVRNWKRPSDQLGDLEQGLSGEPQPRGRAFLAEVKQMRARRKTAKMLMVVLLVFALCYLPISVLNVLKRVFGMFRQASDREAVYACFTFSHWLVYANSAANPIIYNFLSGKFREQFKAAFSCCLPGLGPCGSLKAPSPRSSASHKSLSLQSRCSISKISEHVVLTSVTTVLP

HEK-OX1R cells = assay: Cells growth determination, HEK-OX1R cells; format: cell-based; conditions: 48 hr; OxA 0.1 μM, SB408124 increasing concentrations
Method: FIG. 12: Determination of the inhibition of cellular growth of HEK-OX1R cells and colon adenocarcinoma cells (HT-29) induced by 0.1 μM of OxA or various concentrations of SB408124 antagonist. HEK-OX1R cells (black column) and HT-29 cells (white column) were incubated with 0.1 μM of OxA and indicated increasing concentration of SB408124, and cells were counted after 48 hr incubation. Results are expressed as the percentage of total viable cells.
as §1

## OxA: neuropeptide, endogenous ligand of OX1R and OX2R, with two disulphide bridges (QPLPDCCRQKTCSCRLYELLHGAGNHAAGILTL; disulfide (positions not given here); ends not checked; also: two disulphide bridges, pairing not given here; UniProt O43612 34-66, looked up)
DSS-induced colitis mice; 5% DSS in drinking water, 20 μg daily ip, one week
  Protection from DSS induced acute ulcerative colitis (length of colon): protect mice from DSS induced acute ulcerative colitis disease
DSS-induced colitis mice; 5% DSS orally 7 days, daily intraperitoneal OxA 0.22 μmoles/kg
  Disease Activity Index (DAI) scored by measuring weight, length of colon, diarrhea and presence of blood in the stool: ameliorates
[1]
  Apoptosis in HT-29 cells: induced an apoptotic effect
OX1R
  Ca2+ mobilization induced in HEK-OX1R cells: large and transient
HEK-OX1R cells
  Inhibition of cellular growth of HEK-OX1R cells: strong inhibition
